Source: patent US20160303095A1, “METHODS OF TREATING HEPATITIS B VIRUS” (Gilead Sciences, Inc., priority 2015, published 2016)
Where two headings read alike, the source gives them in different places.

What was measured:
HBV [1] = test: PHH screening protocol: HBsAg and HBeAg levels by MSD ELISA; format: cell-based, Hepatitis B Virus; conditions: Hepatitis B virus
Protocol: HBV antiviral activity was assessed in primary human hepatocytes (PHH) in a 96-well format. PHH were (Life Technologies, Chicago, 11) plated on collagen coated tissue culture plates using Plating Media containing William's Medium E supplemented with 1% Penicillin/Streptomycin, 4 μg/mL human recombinant insulin, 2 mM glutamax, 15 mM Hepes, 1 μM dexamethasone and 5% fetal bovine serum (Life Technologies, Cat#A12176-01 Life Technologies, Chicago, Ill.). After a 4-hour incubation at 37° C., cells were switched to Maintenance Media (Cat#CM4000-A15564 Life Technologies, Chicago, Ill.) containing William's Medium E supplemented with 0.5% Penicillin/Streptomycin, 6.25 μg/mL human recombinant insulin, 6.25 μg/mL human transferrin, 6.25 ng/mL selenous acid, 1.25 mg/mL bovine serum albumin, 5.35 μg/mL linoleic acid, 2 mM glutamax, 15 mM Hepes, 0.1 μM dexamethasone, 2% fetal bovine serum, and 2% DMSO (Cat#D2650 Sigma, St. Louis, Mo.). On the next day, cells were infected with approximately 500 genome equivalent of selected HBV clinical isolates (21P (GTA), 32P (GTA), 91P (GTA), AD38 (GTD), 65P (GTD) or 30P (GTE); ProteoGenex, Culver City, Calif.) per cell in Maintenance Media supplemented with 4% PEG 8000 (Cat#V3011 Promega, Madison, Wis.). After 24 hour incubation cells were washed three times with William's Medium E and fed with fresh Maintenance Media. Small molecule inhibitors targeting KDMs were serially diluted in Maintenance Media and added to cells at 3 days post infection (p.i.). Media with compounds was replenished every 2-3 days. Media collected on various days was used for determination of HBsAg and HBeAg levels by MSD ELISA, and HBV RNA by qPCR. All data were converted into percentages of the untreated control and non-linear regression was performed to calculate EC50 or CC50 values.

HBV [2] = test: Determination of HBV viral RNA by RT-qPCR in PHH; format: cell-based; conditions: Hepatitis B virus, read-out: HBV RNA EC50
Protocol: Following the Alamar Blue measurement, media was removed and total RNA from the cells was isolated using the RNeasy 96 Kit (Cat#74182 Qiagen, Venlo, Netherlands). […] GAPDH mRNA levels were also measured by RT-qPCR to control for differences in cell number, toxicity, and RNA purification efficiency (Cat#4390849 Life Technologies, Chicago Ill.). HBV mRNA Ct values were normalized using their cognate GAPDH mRNA Ct values by the delta-delta-Ct calculation and then expressed as a percentage of the non-targeting scrambled control.

[3] = Alamar Blue cell viability assay; format: cell-based; conditions: human
Protocol: Alamar Blue cell viability reagent (Cat#DAL1100 Life Technologies, Chicago, Ill.) was diluted 1 to 10 in Maintenance Media and added to the cells. Cells were incubated for 4 h at 37° C. and the fluorescence signal, which is proportional to the number of live cells, was read using a fluorimeter with excitation/emission spectra set at 560/590 nm, respectively. Data were converted into percentages of the untreated control and non-linear regression was performed to calculate CC50 values.
PHH were plated in collagen coated tissue culture plates in Plating Media and after 4-hour incubation at 37° C., cells were switched to Maintenance Media. On the next day, the cells were infected with 500 genome equivalents per cell of Genotype-A clinical isolate 21P (ProteoGenex, Culver City, Calif.) in 100 μl Maintenance Media supplemented with 4% PEG 8000 (Cat#V3011 Promega, Madison, Wis.). After an overnight incubation the inoculum was removed and the cells were washed three times with William's Media E and maintained in Maintenance Media. […] Following the transfection, the cells were incubated at 37° C. in a humidified incubator and media was changed every 3-4 days. The assay was terminated on day 14 post infection and cell viability was assessed by Alamar Blue. The collected medium was used for determination of HBsAg and HBeAg levels by MSD ELISA while cells were processed for determination of HBV RNA using qPCR.

H3K4me3 mark = test: Western blot detection of H3K4me3 in HBV-infected PHHs; format: cell-based, human; conditions: for IC50: Homo sapiens
Protocol: One million primary human hepatocytes (PHH) cells from three different donors were plated in 6 well collagen coated tissue culture plates in 2.5 ml Plating Media containing William's Medium E supplemented with 1% Penicillin/Streptomycin, 4 μg/mL human recombinant insulin, 2 mM glutamax, 15 mM Hepes, 1 μM dexamethasone and 5% fetal bovine serum (Life Technologies, Cat#A12176-01 Life Technologies, Chicago, Ill.) and incubated for 4-hours at 37° C. Following this incubation the media was changed to Maintenance Media (Cat#CM4000-A15564 Life Technologies, Chicago, Ill.) containing William's Medium E supplemented with 0.5% Penicillin/Streptomycin, 6.25 μg/mL human recombinant insulin, 6.25 μg/mL human transferrin, 6.25 ng/mL selenous acid, 1.25 mg/mL bovine serum albumin, 5.35 μg/mL linoleic acid, 2 mM glutamax, 15 mM Hepes, 0.1 μM dexamethasone, 2% fetal bovine serum, and 2% DMSO (Cat#D2650 Sigma, St. Louis, Mo.). The next day, cells were infected with approximately 500 genome equivalents of HBV clinical isolates 21P (GTA) or AD38 (GTD) per cell in Maintenance Media supplemented with 4% PEG 8000. Small molecule inhibitors targeting KDMs were serially diluted in Maintenance Media and added to cells at 3 days post infection (p.i.). Media with compounds was replenished every 2-3 days. Cells were harvested on day 14 p.i. by scraping the monolayer into ice-cold PBS supplemented with 5 mM Sodium Butyrate and concentrated by centrifugation at 1000×g for 5 minutes at 4° C. The cell pellets were washed twice by re-suspension in PBS and concentrated by centrifugation. The cells were lysed by suspension in Triton Extraction Buffer (TEB: PBS containing 0.5% Triton X 100 (v/v), 2 mM phenylmethylsulfonyl fluoride (PMSF), 0.02% (w/v) NaN3) at a cell density of 10^7 cells per ml and incubated on ice for 10 minutes with gentle stirring. Following centrifugation at 500 g for 10 minutes at 4° C., the supernatants were removed and the pellets were washed in 5×10^7 cells per ml TEB buffer and centrifuged as before. The pellets were re-suspended in 0.2N HCl at a cell density of 4×10^7 cells per ml and the histones were acid extracted overnight at 4° C. Samples were centrifuged at 500 g for 10 minutes at 4° C., the supematants were removed and protein content was determined using the Bradford assay. Histones were separated on a 4-20% gradient SDS gel (Mini protean TGX precast gels from BioRad), and blotted to a Hybond C-extra nitrocellulose membrane (Amersham Biosciences, RPN303E). H3K4me3 and total H3 were detected with a mixture of 1° antibodies (Cat#05-745R Millipore and Cat#14269S Cell Signaling) diluted 1:1000 in 5% skimmed milk powder in PBS containing 0.1% Tween. The western blot was washed 3 times in PBS containing 0.1% tween and incubated with 2° antibodies (Donkey anti-Mouse IRDye at 680LT Cat#926-68022 Licor Odyssey; Donkey anti-Rabbit IRDye at 800CW Cat#96-32213; Licor Odyssey) diluted 1:10000 in 5% skimmed milk powder in PBS containing 0.1% tween 20 for 1 h. Detection of infrared fluorescence was performed on Infrared Fluorescence Imaging System LI-COR. Concentration dependence of H3K4me3/H3 signal was used to calculate IC50 value for induction of H3K4 trimethylation.

KDM5D = molecular target: T1, KDM5D (Homo sapiens, UniProt Q9BY66); test: Biochemical KDM inhibition assay (LANCE), KDM5D; conditions: read-out: Biochemical IC50 KDM 5D
T1 construct: host or cells: Sf9 cells
T1 sequence (Q9BY66 whole entry): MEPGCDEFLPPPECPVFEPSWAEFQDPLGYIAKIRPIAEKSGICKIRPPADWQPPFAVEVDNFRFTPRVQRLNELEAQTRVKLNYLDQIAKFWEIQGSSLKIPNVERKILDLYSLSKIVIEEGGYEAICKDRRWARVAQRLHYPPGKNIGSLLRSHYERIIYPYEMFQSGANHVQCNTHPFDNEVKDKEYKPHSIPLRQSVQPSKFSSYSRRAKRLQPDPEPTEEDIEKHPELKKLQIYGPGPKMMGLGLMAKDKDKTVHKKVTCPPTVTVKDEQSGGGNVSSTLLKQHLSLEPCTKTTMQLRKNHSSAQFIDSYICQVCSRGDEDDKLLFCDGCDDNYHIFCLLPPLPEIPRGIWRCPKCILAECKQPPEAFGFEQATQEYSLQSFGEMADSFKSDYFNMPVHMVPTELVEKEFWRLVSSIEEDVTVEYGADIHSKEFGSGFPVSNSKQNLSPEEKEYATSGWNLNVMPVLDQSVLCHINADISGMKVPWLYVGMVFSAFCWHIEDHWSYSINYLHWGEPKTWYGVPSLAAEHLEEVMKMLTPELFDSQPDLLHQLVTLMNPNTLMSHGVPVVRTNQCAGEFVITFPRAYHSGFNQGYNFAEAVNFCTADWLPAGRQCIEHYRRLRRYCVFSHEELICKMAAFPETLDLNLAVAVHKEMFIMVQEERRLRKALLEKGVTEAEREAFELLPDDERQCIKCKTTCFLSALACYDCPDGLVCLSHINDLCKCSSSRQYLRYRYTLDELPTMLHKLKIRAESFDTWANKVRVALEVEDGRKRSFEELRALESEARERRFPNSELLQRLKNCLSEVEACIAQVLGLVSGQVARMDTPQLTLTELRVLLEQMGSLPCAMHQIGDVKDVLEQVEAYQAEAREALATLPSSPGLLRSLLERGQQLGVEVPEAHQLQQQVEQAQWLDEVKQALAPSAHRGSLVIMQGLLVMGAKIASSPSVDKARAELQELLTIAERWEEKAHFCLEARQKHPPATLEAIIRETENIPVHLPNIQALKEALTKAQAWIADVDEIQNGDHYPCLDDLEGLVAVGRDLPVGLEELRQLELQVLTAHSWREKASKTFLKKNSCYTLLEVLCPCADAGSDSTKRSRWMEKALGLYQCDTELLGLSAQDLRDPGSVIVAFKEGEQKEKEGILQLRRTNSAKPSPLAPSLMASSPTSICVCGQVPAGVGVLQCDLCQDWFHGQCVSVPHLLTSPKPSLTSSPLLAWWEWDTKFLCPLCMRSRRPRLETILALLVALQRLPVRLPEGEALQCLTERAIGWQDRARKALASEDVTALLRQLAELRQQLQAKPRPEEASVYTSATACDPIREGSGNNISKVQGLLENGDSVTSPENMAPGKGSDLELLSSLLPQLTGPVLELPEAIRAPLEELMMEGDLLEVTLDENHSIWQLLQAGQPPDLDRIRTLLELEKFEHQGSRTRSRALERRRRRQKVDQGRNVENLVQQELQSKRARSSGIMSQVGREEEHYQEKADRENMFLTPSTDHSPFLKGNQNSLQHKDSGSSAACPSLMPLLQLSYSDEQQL
Protocol: (§1) Representative compounds were characterized for their inhibition of KDM5 using biotinylated histone substrates. Inhibition was measured in vitro (CEREP Poitier, Le Bois l'Evêque, France) following experimental conditions described in Table 2. Briefly, the test compound, reference compound or water (control) was mixed with about 2-20 ng of recombinant, Human enzymes expressed in Sf9 cells in a buffer containing 45 mM Hepes/Tris (pH 7), 5 μM FAS, 100 μM ascorbic acid, 10 μM 2-oxoglutarate, 0.01% Tween 20 and 0.01% BSA. Thereafter, the reaction was initiated by adding the biotin-labeled substrate, and the mixture was incubated for 10-30 min at room temperature. For basal control measurements, the enzyme was omitted from the reaction mixture. Following incubation the reaction was stopped by adding 1 mM EDTA. After 5 min, the anti-methyl histone antibody labeled with europium chelate and the Ulight streptavidine (Perkin Elmer Waltham, Mass.) were added. After 60 min more, the fluorescence transfer was measured at λex=320 nm and λem=620 and λem=665 nm using a microplate reader (Envision, Perkin Elmer) (LANCE). The enzyme activity was determined by dividing the signal measured at λem=665 nm by that measured at 620 nm (ratio).

KDM5A = KDM5A (Homo sapiens, UniProt P29375); test: Biochemical KDM inhibition assay (LANCE), KDM5A; conditions: read-out: Biochemical IC50 KDM 5A
Sequence of KDM5A (P29375 whole entry): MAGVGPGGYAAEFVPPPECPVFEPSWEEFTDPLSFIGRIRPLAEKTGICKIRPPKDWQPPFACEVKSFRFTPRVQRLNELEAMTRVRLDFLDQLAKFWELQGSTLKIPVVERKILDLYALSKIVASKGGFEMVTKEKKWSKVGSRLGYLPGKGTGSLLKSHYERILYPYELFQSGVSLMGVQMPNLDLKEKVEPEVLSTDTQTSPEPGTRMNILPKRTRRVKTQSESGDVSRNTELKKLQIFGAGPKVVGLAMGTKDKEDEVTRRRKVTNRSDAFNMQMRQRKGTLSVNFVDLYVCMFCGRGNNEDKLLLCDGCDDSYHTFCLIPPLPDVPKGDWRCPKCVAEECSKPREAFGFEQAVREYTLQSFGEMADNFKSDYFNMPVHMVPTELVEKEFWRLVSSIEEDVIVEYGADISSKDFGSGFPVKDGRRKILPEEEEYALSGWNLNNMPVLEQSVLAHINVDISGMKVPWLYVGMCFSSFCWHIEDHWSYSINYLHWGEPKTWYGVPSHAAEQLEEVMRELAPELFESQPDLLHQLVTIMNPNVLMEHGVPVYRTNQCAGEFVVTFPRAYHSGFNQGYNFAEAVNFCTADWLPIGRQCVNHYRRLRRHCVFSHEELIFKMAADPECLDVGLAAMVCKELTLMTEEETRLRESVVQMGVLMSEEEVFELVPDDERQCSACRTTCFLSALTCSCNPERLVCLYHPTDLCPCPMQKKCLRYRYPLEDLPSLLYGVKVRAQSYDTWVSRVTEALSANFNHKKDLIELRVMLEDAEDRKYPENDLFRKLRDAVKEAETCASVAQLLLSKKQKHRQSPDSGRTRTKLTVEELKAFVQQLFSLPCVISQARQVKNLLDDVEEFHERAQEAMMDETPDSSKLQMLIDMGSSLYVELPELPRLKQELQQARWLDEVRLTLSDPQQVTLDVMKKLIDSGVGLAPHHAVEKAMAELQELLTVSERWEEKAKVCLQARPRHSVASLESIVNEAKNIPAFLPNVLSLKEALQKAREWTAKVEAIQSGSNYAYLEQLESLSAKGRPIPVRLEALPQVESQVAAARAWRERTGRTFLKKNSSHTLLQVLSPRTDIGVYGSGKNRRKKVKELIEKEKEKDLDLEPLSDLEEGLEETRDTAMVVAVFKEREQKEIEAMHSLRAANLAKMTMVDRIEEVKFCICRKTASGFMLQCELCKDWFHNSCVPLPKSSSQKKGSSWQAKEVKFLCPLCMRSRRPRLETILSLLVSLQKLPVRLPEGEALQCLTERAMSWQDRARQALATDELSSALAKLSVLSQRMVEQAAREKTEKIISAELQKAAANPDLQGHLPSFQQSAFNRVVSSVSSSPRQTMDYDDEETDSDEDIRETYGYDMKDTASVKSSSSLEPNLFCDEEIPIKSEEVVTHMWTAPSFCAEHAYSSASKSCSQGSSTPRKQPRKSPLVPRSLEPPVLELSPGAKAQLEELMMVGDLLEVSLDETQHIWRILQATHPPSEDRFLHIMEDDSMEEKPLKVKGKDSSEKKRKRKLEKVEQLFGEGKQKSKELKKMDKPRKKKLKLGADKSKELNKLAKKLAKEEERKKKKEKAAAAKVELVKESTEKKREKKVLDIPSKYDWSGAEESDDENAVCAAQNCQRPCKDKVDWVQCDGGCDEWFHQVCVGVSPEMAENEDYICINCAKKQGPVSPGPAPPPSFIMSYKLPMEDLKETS
Protocol: as §1

KDM5B = molecular target: T2, KDM5B (Homo sapiens, UniProt Q9UGL1); test: Biochemical KDM inhibition assay (LANCE), KDM5B; conditions: read-out: Biochemical IC50 KDM 5B
T2 construct: host or cells: Sf9 cells
T2 sequence (Q9UGL1 whole entry): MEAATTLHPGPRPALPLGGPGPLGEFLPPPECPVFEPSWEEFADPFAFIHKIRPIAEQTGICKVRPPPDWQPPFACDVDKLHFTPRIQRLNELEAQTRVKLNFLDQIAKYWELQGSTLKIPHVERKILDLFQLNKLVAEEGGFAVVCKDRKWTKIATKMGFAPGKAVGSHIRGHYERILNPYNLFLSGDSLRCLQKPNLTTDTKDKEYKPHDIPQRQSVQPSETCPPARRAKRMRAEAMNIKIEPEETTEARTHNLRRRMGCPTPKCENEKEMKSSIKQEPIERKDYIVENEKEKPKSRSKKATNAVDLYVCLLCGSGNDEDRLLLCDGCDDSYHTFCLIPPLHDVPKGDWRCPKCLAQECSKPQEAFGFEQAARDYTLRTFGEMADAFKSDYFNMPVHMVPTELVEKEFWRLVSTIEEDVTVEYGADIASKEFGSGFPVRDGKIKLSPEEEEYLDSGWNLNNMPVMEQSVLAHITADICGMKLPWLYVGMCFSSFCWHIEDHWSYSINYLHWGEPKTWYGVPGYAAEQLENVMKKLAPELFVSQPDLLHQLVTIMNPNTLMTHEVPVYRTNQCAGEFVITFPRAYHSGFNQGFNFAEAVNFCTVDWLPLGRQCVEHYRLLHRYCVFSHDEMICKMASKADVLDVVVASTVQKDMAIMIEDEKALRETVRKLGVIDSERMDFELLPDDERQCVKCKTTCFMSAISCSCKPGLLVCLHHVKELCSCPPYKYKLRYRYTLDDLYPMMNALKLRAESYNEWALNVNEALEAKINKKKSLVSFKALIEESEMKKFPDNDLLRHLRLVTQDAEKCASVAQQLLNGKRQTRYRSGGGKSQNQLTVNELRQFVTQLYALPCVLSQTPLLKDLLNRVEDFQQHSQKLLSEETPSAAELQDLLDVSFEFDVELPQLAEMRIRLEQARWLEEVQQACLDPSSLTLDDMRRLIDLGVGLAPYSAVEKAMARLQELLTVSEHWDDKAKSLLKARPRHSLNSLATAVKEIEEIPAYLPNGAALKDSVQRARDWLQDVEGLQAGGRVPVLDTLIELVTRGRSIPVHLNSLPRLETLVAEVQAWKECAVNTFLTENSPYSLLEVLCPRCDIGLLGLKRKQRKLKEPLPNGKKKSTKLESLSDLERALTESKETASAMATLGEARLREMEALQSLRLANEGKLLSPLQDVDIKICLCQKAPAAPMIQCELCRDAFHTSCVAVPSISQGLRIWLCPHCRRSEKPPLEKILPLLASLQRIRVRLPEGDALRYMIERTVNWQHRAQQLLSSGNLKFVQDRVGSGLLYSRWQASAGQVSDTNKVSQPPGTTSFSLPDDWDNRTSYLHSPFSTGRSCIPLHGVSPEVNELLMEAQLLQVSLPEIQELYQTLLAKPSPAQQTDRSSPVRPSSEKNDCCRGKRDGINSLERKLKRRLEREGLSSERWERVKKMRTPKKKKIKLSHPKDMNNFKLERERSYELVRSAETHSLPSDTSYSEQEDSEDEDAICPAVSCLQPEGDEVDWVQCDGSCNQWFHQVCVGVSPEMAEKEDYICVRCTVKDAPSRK
Protocol: as §1

KDM4E = molecular target: T3, KDM4E (Homo sapiens, UniProt B2RXH2); test: Biochemical KDM inhibition assay (LANCE), KDM4E; conditions: read-out: Biochemical IC50 KDM 4E
T3 construct: host or cells: Sf9 cells
T3 sequence (B2RXH2 1-506): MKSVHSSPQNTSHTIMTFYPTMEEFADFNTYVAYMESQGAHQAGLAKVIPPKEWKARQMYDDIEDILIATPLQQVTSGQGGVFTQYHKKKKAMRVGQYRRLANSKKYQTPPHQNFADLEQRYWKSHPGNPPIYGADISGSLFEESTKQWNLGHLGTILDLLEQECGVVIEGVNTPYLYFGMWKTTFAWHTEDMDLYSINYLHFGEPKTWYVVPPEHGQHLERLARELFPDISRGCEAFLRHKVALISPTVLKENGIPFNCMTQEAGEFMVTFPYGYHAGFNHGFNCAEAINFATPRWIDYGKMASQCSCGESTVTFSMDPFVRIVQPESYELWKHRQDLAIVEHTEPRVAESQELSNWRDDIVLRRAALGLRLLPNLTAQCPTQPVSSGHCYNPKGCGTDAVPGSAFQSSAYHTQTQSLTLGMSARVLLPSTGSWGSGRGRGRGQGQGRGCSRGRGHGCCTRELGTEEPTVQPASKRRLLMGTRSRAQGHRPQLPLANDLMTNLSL

[4] = read-out: HBeAg EC50, HBV-infected PHH
[5] = read-out: HBsAg EC50, HBV-infected PHH
[6] = primary human hepatocytes (PHH), read-out: PHH CC50

SMILES | EC50 (HBV [1]; [4]) [µM] | EC50 (HBV [1]; [5]) [µM] | CC50 [3] [µM] | CC50 [3, 6] [µM] | further results
Clc1ccc(N/N=C(\c2ccccc2)c2ccccn2)nc1 [Example 4, JIB-04, reference compound] | 0.9 | 0.9 | ≥ 100 |  | EC50 (HBV [2]; HBV-infected PHH): 4.6 µM
NC1CC1c1cccc(OCC[C@H](NC(=O)c2ccccc2)C(=O)NCc2ccccc2)c1 (some centres unmarked) [Example 10, NCL-1, reference compound] | 19 | 19.4 | 8.12 |  | 
CCN(CCN(C)C)C(=O)CNCc1cc(/C=N/CCO)ccn1 [Example 16] | 0.648 | 0.257 | ≥ 50 |  | 
CN(C)CCCNC(=O)c1ccc(-c2cc(O)c3ncccc3c2)cc1 [Example 5, ML-324, reference compound] | 34.5 | 38.4 |  | 69.4 | 
O=C(O)c1ccc(O)c2ncccc12 [Example 2, 8-HQ-5-COOH, reference compound] | 32 | 45.8 |  |  | 
CCN(CCN(C)C)C(=O)CNCc1cc(C=O)ccn1 [Example 15] | 0.053 | 0.041 | ≥ 50 |  | IC50 (H3K4me3 mark; read-out: IC50 (concentration causing a 50% increase in the H3K4me3 mark), Virus 21P (GTA), PHH 8130): 0.05 µM; IC50 (H3K4me3 mark; read-out: IC50 (concentration causing a 50% increase in the H3K4me3 mark), Virus 21P (GTA), PHH 8181): 0.03 µM; IC50 (H3K4me3 mark; read-out: IC50 (concentration causing a 50% increase in the H3K4me3 mark), Virus AD38 (GTD), PHH 4239): 0.02 µM; IC50 (H3K4me3 mark; read-out: IC50 (concentration causing a 50% increase in the H3K4me3 mark), Virus AD38 (GTD), PHH 8130): 0.05 µM; IC50 (H3K4me3 mark; read-out: IC50 (concentration causing a 50% increase in the H3K4me3 mark), Virus AD38 (GTD), PHH 8181): 0.04 µM; chromatin H3K4Me3 mark (H3K4me3 mark; PHH from three different donors): increase in the chromatin H3K4Me3 mark in a dose-dependent manner
CCOC(=O)CCNc1cc(N2CCc3ccccc3CC2)nc(-c2ccccn2)n1 [Example 3, GSK-J4, reference compound] | 3.43 | 28.7 |  | ≥ 100 | 
O=C(O)c1ccnc(-n2ncc(CCO)c2OCc2ccc(F)cc2)c1 [Example 12] | 50 | 50 | ≥ 50 |  | IC50 (KDM5D): 6.4 µM; IC50 (KDM5A): 1.6 µM; IC50 (KDM5B): 2.7 µM; IC50 (KDM4E): 9.1 µM
N[C@H]1C[C@@H]1c1ccc(-c2cccc(O)c2)cc1 [Example 6, OG-L002, reference compound] | 46.7 | 38.3 | ≥ 100 |  | EC50 (HBV [2]): 31.6 µM
O=C(O)CCNc1cc(N2CCc3ccccc3CC2)nc(-c2ccccn2)n1 [Example 1, GSK-J1, reference compound] | 8.04 | 22.4 |  | ≥ 100 | 
